Literature values in patent publication US20070166389A1, “Stabilized lyophilized blood platelets” (priority 2005, published 2007).

Experiments:
[1] = dosages effective for increasing bile salt secretion
sickle erythrocytes = conditions: glyceraldehyde treatment in vitro

## COC(=O)C1=CO[C@@H](O)[C@@H]2C(CO)=CC[C@H]12 [genipin]
[1]
  abnormal symptoms in liver or kidney: do not cause any abnormal symptoms in the liver or kidney

## O=CC(O)CO (stereo not drawn) [glyceraldehyde]
Sickle erythrocytes
  deleterious effects of the treatment: failed to show any deleterious effects
  life span in vivo of sickle erythrocytes: prolongation of the life span of sickle erythrocytes
